Marks after values point to notes of the source that are not given here.
How the values were obtained:
influenza virus A/H5N2 = format: binding
[1] = system: influenza virus A/H1N1/NIB23; test: fetuin binding inhibition test (FBI-test), influenza virus receptor binding inhibition assay
[2] = system: influenza virus A/Н3N2/29/90; test: as above
[3] = association in aqueous solution by dynamic light scattering (DLS); format: physicochemical
[4] = association (tectomer formation) on mica surface by scanning force microscopy (SFM); format: physicochemical; details: 0.1 mg/mL; for tectomer layer height on mica: рН 6.5, tapping mode in air
[5] = FBI-test, value in parentheses for monomeric sialoside

Compound: CC(=O)N[C@H]1[C@H]([C@H](O)[C@H](O)CO)O[C@@](O[C@H]2[C@@H](O)[C@@H](CO)O[C@@H](O[C@H]3[C@H](O)[C@@H](O)[C@H](O)O[C@@H]3CO)[C@@H]2O)(C(=O)O)C[C@@H]1O [3’SL, Neu5Acα2-3Galβ1-4Glcβ]
- IC50 (influenza virus A/H5N2): 150 µM
- Relative activity (influenza virus A/H5N2): 1(150)^b

Compound: CC(=O)N[C@H]1[C@H]([C@H](O)[C@H](O)CO)O[C@](OC[C@H]2O[C@@H](O[C@H]3[C@H](O)[C@@H](NC(C)=O)C(O)O[C@@H]3CO)[C@H](O)[C@@H](O)[C@H]2O)(C(=O)O)C[C@@H]1O (some centres unmarked) [6’SLN, Neu5Acα2-6Galβ1-4GlcNAcβ]
- IC50 [1, 5]: 150 µM
- Relative activity ([1]; inhibition of binding of fetuin peroxidase conjugate to immobilized virus, related to monomer 6’SLN = 1): 1

Compound: CC(=O)N[C@H]1[C@H]([C@H](O)[C@H](O)CO)O[C@@](OCc2ccccc2)(C(=O)O)C[C@@H]1O [Neu5AcαOBn]
- IC50 [2, 5]: 150 µM
- Relative activity ([2]; inhibition of binding of fetuin peroxidase conjugate to virus immobilized on plastic, related to monomer Neu5AcαOBn = 1): 1

Compound: Н-Gly4NH(СН2)10NHGly4-Н
- size of associates stable in aqueous media ([3]; neutral and basic media (рН 6.5 and 8.5, after NaHCO3 or Na2CO3), concentration ≤0.1 mg/mL): 800–1200 nm
- tectomer layer height on mica [4]: 3.7–4.0 nm

Compound: Н-Gly4NH(СН2)10NHGly4-Н·2HCl
- concentration at which the peptide associates in acidic solution ([3]; aqueous solution, рН < 5): ≥ 500 µg/mL

Compound: Н-Gly5-NH(СН2)2NH-Gly5-Н
- tectomer layer height on mica [4]: 3.3 nm
- planar dimensions of islet-like tectomers on mica ([4]; рН 6.5, texp = 10 min, tapping mode in air): 500–700 nm
